Two molecules from patent publication US9408388B2 (Dow Global Technologies LLC, priority 2013, dated 2016) can be followed below.

Experiment [1] relates to Stichococcus bacillaris SAG 379-1a CCAP 379/1a. Kind of experiment: Algal efficacy testing of dry paint film (modified ASTM 5589, 6-well plates). It is filed as cell-based. The note with it: 4 weeks. Here is the method: (§1) Slurries containing 34.3% carbendazim were post added to a white, acrylic/silicone based outdoor paint free of biocides to give a total active ingredient concentration of 10000 and 1000 ppm respectively. These paints were then diluted with an antimicrobial free acrylic/silicone based paint and mixed to prepare targeted concentrations of antimicrobial compounds for the testing. The total biocides concentrations tested were 125, 250, 500, 1000, 2000 and 5000 ppm. After biocides addition or dilution, the paints were mixed 90 seconds with the horse power shaker (AXEL 75M3372/Agitateur SO-10MI) until uniformity was achieved. Paints containing different antimicrobial compounds at the same levels were mixed together in order to obtain the desired ratio of antimicrobial compounds. After one day, the paints were applied to Schleicher & Schuell filter paper at 280 μm wet film thickness and dried for 3 days at room temperature avoiding direct exposure to sunlight. Square discs (1.6 cm×1.6 cm) were cut out from each panel and were used as the substrate for algal efficacy tests. This sample size allowed for an agar border when the sample disc was placed into the well of the test plate.
(§2) Algal efficacy was tested according to modified ASTM 5589 which is a standard accelerated test method for determining resistance of various coatings (including paints) to algal defacement. To accommodate for high-throughput screening, this method was scaled down from petri dishes to 6-well plates. Bold Modified Basal Freshwater Nutrient Solution was used as growth medium. A single coated filter paper coupon was placed with a pair of sterile forceps at the center of the agar plug (on top) with the painted surface facing upwards. Algal inoculums were prepared by mixing equal concentrations (1×10^6 cfu/ml) and equal volumes of exponentially growing algae cultures.
(§3) Each well that contains a tested coupon was inoculated with 1750 μl of algal suspensions (1×10^6 cfu/ml) making sure that the whole surface (paint film as well as the agar surrounding it) was evenly covered. The plates were incubated at room temp (21° C. -25° C.) with cyclic exposure to light and dark phases, for a period of four weeks.
(§4) At the end of the four week incubation period, the samples were scored for percent inhibition regarding visible algal growth compared to the blank sample (0% inhibition).
(§5) The SI is calculated based on F. C. Kull et.
(§6) The minimal targeted inhibition was set at 75%, meaning a coupon with at least 75% algal growth inhibition was considered as a pass.

The test system of a further experiment is Chlorella sp. ATCC 7516. The experiment is described as above. It is filed as cell-based. The note with it: 4 weeks. Here is the method:
as §1, §2, §3, §4, §5, §6

[2] abbreviates: pass level 75% inhibition, total biocide in liquid paint.

As to `COC(=O)Nc1nc2ccccc2[nH]1` [Carbendazim, methylbenzimidazol-2-ylcarbamate], the “Total conc (concentration used for SI; lowest passing level or highest level without pass)” value (in experiment [1] (setting [2]); with Chlorella sp. ATCC 7516 (setting [2])) was 2000 ppm in each case. Also, the inhibition (commonly the relative decrease from the control value, in per cent) at 2000 ppm turned out to be 45% in experiment [1] (Stichococcus bacillaris, 672 h, total conc 2000 ppm, visible algal growth vs blank) and 45% with Chlorella sp. ATCC 7516 (672 h, total conc 2000 ppm, visible algal growth vs blank).

`O=c1[nH]c2c(c(=O)n1C1CCCCC1)CCC2` [Lenacil, 3-cyclohexyl-1,5,6,7-tetrahydrocyclopentapyrimidine-2,4(3H)-dione]: the inhibition at 5000 ppm in experiment [1] (Stichococcus bacillaris, 672 h, total conc 5000 ppm, visible algal growth vs blank) came out at 65%; with Chlorella sp. ATCC 7516 (672 h, total conc 5000 ppm, visible algal growth vs blank), 45%.
